# From patent publication US11082386B2, “2′-fluoro-6′-methylene carbocyclic nucleosides and methods of treating viral infections” (UNIVERSITY OF GEORGIA RESEARCH FOUNDATION, INC., priority 2009, dated 2021)
# “Also recorded” adds a separate entry of the source. Read-outs that look alike come from different tables or passages of the source.
# Tests used:
# [1] = target: T1, adenosine deaminase from calf thymus (Bos taurus, UniProt P56658); assay: deamination study with adenosine deaminase; type: in vitro ADME
# T1 construct: adenosine deaminase from calf thymus; from tissue; host or cells: calf thymus
# T1 sequence (P56658 1-363): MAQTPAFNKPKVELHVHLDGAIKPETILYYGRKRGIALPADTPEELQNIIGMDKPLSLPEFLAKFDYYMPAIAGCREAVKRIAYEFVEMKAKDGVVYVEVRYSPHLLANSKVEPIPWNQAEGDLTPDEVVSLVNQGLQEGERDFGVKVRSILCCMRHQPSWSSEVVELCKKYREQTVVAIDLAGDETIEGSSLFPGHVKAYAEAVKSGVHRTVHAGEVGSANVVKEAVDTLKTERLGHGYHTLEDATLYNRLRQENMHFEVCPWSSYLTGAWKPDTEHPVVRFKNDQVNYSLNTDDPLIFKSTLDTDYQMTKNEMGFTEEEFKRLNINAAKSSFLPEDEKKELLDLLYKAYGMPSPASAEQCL
# [2] = system: wild-type HBV; assay: intracellular HBV DNA replication assay, wild type; type: cell-based, Hepatitis B virus
# Experimental: (§1) In view of the significance of lamivudine- and adefovir-resistant mutations in the clinical application of anti-HBV treatment, the synthesized nucleoside 15/18 was tested against HBV WT as well as lamivudine- and adefovir-resistant mutants.
# [3] = system: HepG2 cells; assay: mitochondrial toxicity by lactic dehydrogenase release; type: cell-based; conditions: human
# [4] = system: HBV double mutant rtL180M/rtM204V; assay: intracellular HBV DNA replication assay, double mutant; type: cell-based, Hepatitis B virus
# Experimental: as §1
# [5] = system: HBV adefovir mutant rtN236T; assay: intracellular HBV DNA replication assay, adefovir mutant; type: cell-based, Hepatitis B virus
# Experimental: as §1
# [6] = system: HBV genotype C entecavir resistant clone (L180M+M204V+S202G); assay: anti-HBV activity against entecavir resistant clone in Huh7 cells; type: cell-based, Hepatitis B virus; conditions: for EC50: Hepatitis B virus, Huh-7; for antiviral potency against the entecavir mutant / IC50: Huh7 cells; for IC50: HBV genotype C entecavir resistant clone
# Source text: (§2) A mono-phosphate prodrug can be useful not only to bypass the rate limiting initial phosphorylation step by the nucleoside kinase, thereby to increase the antiviral potency, but also it may potentially target the liver. Therefore, a phosphoramidite, compound 15P/18P was also synthesized.
# [7] = system: HBV mutant rtM204I; assay: intracellular HBV DNA replication assay, rtM204I; type: cell-based; conditions: Hepatitis B virus
# Experimental: as §1
# [8] = system: lamivudine-resistant mutants including rtM204V/I±rtL180M; assay: activity against lamivudine-resistant mutants relative to wild type; type: cell-based, Hepatitis B virus
# Experimental: as §1
# [9] = system: HBV mutant rtL180M; assay: intracellular HBV DNA replication assay, rtL180M; type: cell-based, Hepatitis B virus; conditions: for EC50 / EC90: Hepatitis B virus
# Experimental: as §1
# [10] = system: HBV mutant rtM204V; assay: intracellular HBV DNA replication assay, rtM204V; type: cell-based; conditions: Hepatitis B virus
# Experimental: as §1
# [11] = cytotoxicity / cellular toxicity (CC50); conditions: Table 2
# Experimental: Drug susceptibility assays were performed as previously described. Cytotoxicity assays in PBM, CEM and Vero cells were conducted as previously described. […] These compounds were tested in a standard HBV assay in the laboratory of Dr. Brent Korba.
# [12] = system: entecavir resistant HBV mutant (L180M+M204V+S202G); assay: in vivo study in chimeric mice, entecavir resistant HBV mutant; conditions: for viral load down / activity: mice, entecavir resistant HBV mutant (L180M+M204V+S202G); for antiviral activity: preliminary, chimeric mice infected with lamivudine-adeforvir-entecavir triple mutant
# Experimental: (§3) The FMCA monophosphate prodrug compound (15P/18P) was also tested in chimeric mice for activity.
# [13] = system: WT HBV; assay: anti-HBV activity against wild type in Huh7 cells (Table 2); type: cell-based, Hepatitis B virus
# Source text: as §2
# [14] = system: wild-type HBV; assay: in vivo study in chimeric mice, wild-type HBV
# Experimental: as §3
# [15] = system: HBV; assay: standard HBV assay (HBV Assay Results table); type: cell-based, Hepatitis B virus
# Experimental: Drug susceptibility assays were performed as previously described. […]
# [16] = system: HBV rtA181T and rtN236T mutations; conditions: cited from earlier work
# [17] = system: lamivudine-resistant mutants including rtM204V/I±rtL180M; conditions: literature reference 50; cited from earlier work
# [18] = rtN236T, compared with adefovir
compound,measurement,setting,value
"C=C1[C@@H](n2cnc3c(N)ncnc32)[C@@H](F)[C@H](O)[C@H]1CO [Compound 15/18, (+)-(1R,2R,3R,5R)-3-(6-amino-9H-9-purinyl)-2-fluoro-5-(hydroxymethyl)-4-methylenecyclopentan-1-ol]",stability against adenosine deaminase,[1],completely stable
same,EC90,[2]; Hepatitis B virus,4.5 µM
same,EC50,"[2]; Hepatitis B virus, HBV-WT, inhibition of 50% of HBV DNA",1.5 µM
same,fold more potent than adefovir in EC90,[2]; wild-type HBV,1.5 fold
same,fold less potent than lamivudine,"[2]; wild-type HBV, EC50",7 fold
same,mitochondrial toxicity (lactic dehydrogenase release),[3],did not exhibit any significant toxicity up to 100 μM
same,EC50,[4]; Hepatitis B virus,2.2 µM
same,EC90,[4]; Hepatitis B virus,5.5 µM
same,EC50,[5]; Hepatitis B virus,1.7 µM
same,EC90,[5]; Hepatitis B virus,4.6 µM
same,fold enhanced EC50 value,[5]; [18],4.5 fold
same,fold more favorable EC90 value,[5]; [18],7.8 fold
same,EC50,[6],0.67 µM
same,antiviral potency against the entecavir mutant,[6],still maintain the antiviral potency
same,EC50,[7],1 µM
same,cross-resistance to tested lamivudine-resistant mutants,[8],not cross-resistant
same,fold increase against lamivudine-resistant mutants,[8]; rtM204V/I±rtL180M versus wild type,1.0-1.2 fold
same,EC50,[9],2.1 µM
same,EC90,[9],5.1 µM
same,fold increased antiviral activity in EC90 versus lamivudine,[9]; rtL180M,4.3 fold
same,EC50,[10],1.8 µM
C=C1C(COP(=O)(N[C@@H](C)C(=O)OC)Oc2ccccc2)C(O)C(F)C1n1cnc2c(N)ncnc21 (stereo partly shown) [Compound 15P/18P],cellular toxicity in comparison to parent 15/18,[11],without significant increase of cellular toxicity
same,viral load down / activity,[12],1 log
same,antiviral activity,[12],exhibited antiviral activity
same,IC50,[6],0.05 µM
same,antiviral potency against the entecavir mutant,[6],still maintain the antiviral potency
same,fold enhancement of anti-HBV potency in EC50 versus parent 15/18,[13],7 fold
same,fold enhancement of anti-HBV potency in EC90 versus parent 15/18,[13],13 fold
same,viral load down,[14],2 log
same,times more active than the compound where R1 and R1a are H,[15]; prodrug versus parent 15/18,more than 10 times
"Nc1ncnc2c1ncn2CCOCP(=O)(O)O [adefovir, reference compound]",EC90,"[2]; HBV-WT, inhibition of 90% of HBV DNA, read-out: EC90",7.1 µM
same,EC50,"[4]; double mutant rtL180M/rtM204V, read-out: EC50",2.2 µM
same,EC90,"[4]; double mutant rtL180M/rtM204V, read-out: EC90",8.5 µM
same,increase in median effective concentration,[16],two-fold to nine-fold
C=C1[C@H](CO)[C@@H](O)C[C@@H]1n1cnc2c(=O)[nH]c(N)nc21 [entecavir],viral load down / activity,[12]; listed as ETV,inactive; also recorded: not active
same,antiviral activity,[12],did not
same,EC50,[6],1.2 µM
same,fold loss of activity against lamivudine-resistant mutants,[17],8 fold
"Nc1ccn([C@@H]2CS[C@H](CO)O2)c(=O)n1 [lamivudine, reference compound]",mitochondrial toxicity (lactic dehydrogenase release),[3],did not exhibit any significant toxicity up to 100 μM
same,EC50,[9],1.5 µM
same,EC90,[9],22 µM
same,EC50,"[15]; Hepatitis B virus, read-out: Control: 3TC EC50",2420 µM
"(+)-(1R,2R,3R,5R)-3-(6-amino-9H-9-purinyl)-2-fluoro-5-(hydroxymethyl)-4-methylenecyclopentan-1-ol [Compound 15/18]",IC50,[6],0.054 µM
